Reference: ChEMBL document CHEMBL5543116, “Discovery of DNL343: A Potent, Selective, and Brain-Penetrant eIF2B Activator Designed for the Treatment of Neurodegenerative Diseases” (J Med Chem, 2024)
In brackets after ≈: the same amount, converted by molar mass. One block for each molecule: values may come before it. Activity calls are given as the source filed them. The calls are words filed in the database; no cut-off is given here.

What was measured:
[1] = Lipophilicity, log D of the compound at pH 7.4; format: physicochemical; settings: buffer
[2] = Metabolic stability in human liver microsome assessed as hepatic clearance; format: ADME; settings: liver microsomes
[3] = Kinetic solubility of compound; format: physicochemical; settings: read-out: Kinetic_solubility
[4] = Metabolic stability in rat liver microsome assessed as hepatic clearance; format: ADME; settings: liver microsomes
[5] = Clearance in rat at 1 mg/kg, iv by LC-MS/MS analysis; format: ADME, organism-based; settings: in vivo
[6] = Volume of distribution at steady state in rat at 1 mg/kg, iv by LC-MS/MS analysis; format: ADME, organism-based; settings: in vivo, read-out: Vdss
[7] = Half life in rat at 1 mg/kg, iv by LC-MS/MS analysis; format: ADME, organism-based; settings: in vivo
[8] = Oral bioavailability in rat at 3 mg/kg by LC-MS/MS analysis; format: ADME, organism-based; settings: in vivo
[9] = Oral bioavailability in dog at 1 mg/kg; format: ADME, organism-based, Canis lupus familiaris; settings: in vivo
[10] = Oral bioavailability in rat at 3 mg/kg; format: ADME, organism-based; settings: in vivo
[11] = Metabolic stability in rat liver microsome assessed as clearance; format: ADME; settings: liver microsomes
[12] = Clearance in rat at 1 mg/kg, iv; format: ADME, organism-based; settings: in vivo
[13] = Clearance in dog at 0.5 mg/kg, iv; format: ADME, organism-based, Canis lupus familiaris; settings: in vivo
[14] = Clearance in cynomolgus monkey at 0.5 mg/kg, iv; format: ADME, organism-based, Macaca fascicularis; settings: in vivo
[15] = Volume of distribution at steady state in rat at 1 mg/kg, iv; format: ADME, organism-based; settings: in vivo, read-out: Vdss
[16] = Volume of distribution at steady state in dog at 0.5 mg/kg, iv; format: ADME, organism-based, Canis lupus familiaris; settings: in vivo, read-out: Vdss
[17] = Volume of distribution at steady state in cynomolgus monkey at 0.5 mg/kg, iv; format: ADME, organism-based, Macaca fascicularis; settings: in vivo, read-out: Vdss
[18] = Half life in rat at 1 mg/kg, iv; format: ADME, organism-based; settings: in vivo
[19] = Half life in dog at 0.5 mg/kg, iv; format: ADME, organism-based, Canis lupus familiaris; settings: in vivo
[20] = Half life in cynomolgus monkey at 0.5 mg/kg, iv; format: ADME, organism-based, Macaca fascicularis; settings: in vivo
[21] = Oral bioavailability in cynomolgus monkey at 1 mg/kg; format: ADME, organism-based, Macaca fascicularis; settings: in vivo
[22] = Ratio of unbound drug concentration in rat brain to plasma at 3 mg/kg, po; format: ADME, organism-based
[23] = Ratio of unbound drug concentration in cynomolgus monkey brain to plasma at 0.5 mg/kg, po measured after 6 hrs; format: ADME, organism-based, Macaca fascicularis
[24] = molecular target: T1, Nuclear receptor subfamily 1 group I member 2 (Homo sapiens, UniProt O75469); test: Activation of PXR (unknown origin)
T1 sequence (O75469 whole entry): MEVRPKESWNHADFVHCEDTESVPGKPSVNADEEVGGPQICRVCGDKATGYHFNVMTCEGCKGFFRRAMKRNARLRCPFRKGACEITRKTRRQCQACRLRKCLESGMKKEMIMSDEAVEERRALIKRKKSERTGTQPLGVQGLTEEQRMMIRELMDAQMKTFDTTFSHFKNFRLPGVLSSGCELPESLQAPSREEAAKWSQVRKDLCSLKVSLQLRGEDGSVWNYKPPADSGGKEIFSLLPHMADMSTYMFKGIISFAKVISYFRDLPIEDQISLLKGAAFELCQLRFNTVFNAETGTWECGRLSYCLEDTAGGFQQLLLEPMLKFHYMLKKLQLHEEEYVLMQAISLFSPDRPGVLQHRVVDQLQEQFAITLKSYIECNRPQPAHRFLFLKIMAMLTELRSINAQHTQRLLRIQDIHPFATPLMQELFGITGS

[25] = molecular target: T2, Nuclear receptor subfamily 1 group I member 3 (Homo sapiens, UniProt Q14994); test: Activation of CAR (unknown origin)
T2 sequence (Q14994 whole entry): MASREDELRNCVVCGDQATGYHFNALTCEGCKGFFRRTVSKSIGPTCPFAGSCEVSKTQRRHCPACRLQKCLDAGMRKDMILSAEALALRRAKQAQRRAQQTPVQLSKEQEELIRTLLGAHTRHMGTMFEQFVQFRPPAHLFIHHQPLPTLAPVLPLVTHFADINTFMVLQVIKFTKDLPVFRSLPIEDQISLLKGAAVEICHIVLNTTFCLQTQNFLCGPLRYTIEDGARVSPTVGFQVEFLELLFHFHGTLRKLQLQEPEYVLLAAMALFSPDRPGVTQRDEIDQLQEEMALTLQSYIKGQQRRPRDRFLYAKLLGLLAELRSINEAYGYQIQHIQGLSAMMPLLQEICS

[26] = molecular target: T3, Aryl hydrocarbon receptor (Homo sapiens, UniProt P35869); test: Activation of AHR (unknown origin)
T3 sequence (P35869 whole entry): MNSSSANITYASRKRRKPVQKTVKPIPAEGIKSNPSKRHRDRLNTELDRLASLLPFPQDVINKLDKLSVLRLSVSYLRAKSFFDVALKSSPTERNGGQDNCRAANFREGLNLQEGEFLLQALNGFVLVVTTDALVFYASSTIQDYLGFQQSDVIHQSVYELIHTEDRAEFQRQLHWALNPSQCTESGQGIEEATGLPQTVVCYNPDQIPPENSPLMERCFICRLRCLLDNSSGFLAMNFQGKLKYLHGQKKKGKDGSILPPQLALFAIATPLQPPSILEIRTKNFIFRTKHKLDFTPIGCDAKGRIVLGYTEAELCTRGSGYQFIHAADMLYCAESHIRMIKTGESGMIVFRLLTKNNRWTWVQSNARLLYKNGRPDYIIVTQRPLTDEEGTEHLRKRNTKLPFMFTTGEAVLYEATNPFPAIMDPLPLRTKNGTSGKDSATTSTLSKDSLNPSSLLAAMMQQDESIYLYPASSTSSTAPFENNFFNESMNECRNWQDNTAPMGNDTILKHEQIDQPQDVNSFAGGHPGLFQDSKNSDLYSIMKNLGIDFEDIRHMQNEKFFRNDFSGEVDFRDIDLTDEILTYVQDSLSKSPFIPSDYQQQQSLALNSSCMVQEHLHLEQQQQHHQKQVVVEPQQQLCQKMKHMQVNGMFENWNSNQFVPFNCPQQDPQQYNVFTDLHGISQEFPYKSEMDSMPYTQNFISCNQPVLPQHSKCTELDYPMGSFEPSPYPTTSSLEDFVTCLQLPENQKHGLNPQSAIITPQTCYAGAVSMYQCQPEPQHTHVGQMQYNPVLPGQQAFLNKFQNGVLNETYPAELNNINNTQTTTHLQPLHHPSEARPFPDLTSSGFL

[27] = molecular target: Voltage-gated inwardly rectifying potassium channel KCNH2 (Homo sapiens, UniProt Q12809); test: Inhibition of hERG manual patch clamp assay; format: toxicity
H4 = test: Neuroprotective activity against NaAsO2-induced human H4 cells expressing GFP TDP43 (86 to 414 residues) assessed as decrease in TDP43 accumulation incubated for 2 hrs by DAPI staining based microscopic analysis; format: functional, cell-based; settings: H4, 2 h
Mus musculus [28] = test: Neuroprotective activity against Eif 2bS R191H […] mouse model assessed as reduction in trib3 level in brain at 50 mg/kg, po administered for 2 days; format: functional, organism-based; settings: time 2.0 day
Mus musculus [29] = test: Neuroprotective activity against Eif 2bS R191H […] mouse model assessed as reduction in Slc1a5 level in brain at 50 mg/kg, po administered for 2 days; format: functional, organism-based; settings: time 2.0 day
Mus musculus [30] = test: Neuroprotective activity against Eif 2bS R191H […] mouse model assessed as reduction in Eif4ebp1 level in brain at 50 mg/kg, po administered for 2 days; format: functional, organism-based; settings: time 2.0 day
Mus musculus [31] = test: Neuroprotective activity against Eif 2bS R191H […] mouse model assessed as reduction in mthfd2 level in brain at 50 mg/kg, po administered for 2 days; format: functional, organism-based; settings: time 2.0 day
Mus musculus [32] = test: Neuroprotective activity against Eif 2bS R191H […] mouse model assessed as reduction in Sic7a5 level in brain at 50 mg/kg, po administered for 2 days; format: functional, organism-based; settings: time 2.0 day
Mus musculus [33] = test: Neuroprotective activity against Eif 2bS R191H […] mouse model assessed as reduction in Chac1 level in brain at 50 mg/kg, po administered for 2 days; format: functional, organism-based; settings: time 2.0 day
Mus musculus [34] = test: Neuroprotective activity against Eif 2bS R191H […] mouse model assessed as reduction in Atf3 level in brain at 50 mg/kg, po administered for 2 days; format: functional, organism-based; settings: time 2.0 day
Mus musculus [35] = test: Neuroprotective activity against Eif 2bS R191H […] mouse model assessed as reduction in Sensn2 level in brain at 50 mg/kg, po administered for 2 days; format: functional, organism-based; settings: time 2.0 day
Mus musculus [36] = test: Neuroprotective activity against Eif 2bS R191H […] mouse model assessed as reduction in Sic7a11 level in brain at 50 mg/kg, po administered for 2 days; format: functional, organism-based; settings: time 2.0 day
Mus musculus [37] = test: Neuroprotective activity against Eif 2bS R191H […] mouse model assessed as reduction in Atf4 level in brain at 50 mg/kg, po administered for 2 days; format: functional, organism-based; settings: time 2.0 day
Mus musculus [38] = test: Neuroprotective activity against Eif 2bS R191H […] mouse model assessed as reduction in Ddit3 level in brain at 50 mg/kg, po administered for 2 days; format: functional, organism-based; settings: time 2.0 day
Mus musculus [39] = test: Neuroprotective activity against Eif 2bS R191H […] mouse model assessed as reduction in Psat1 level in brain at 50 mg/kg, po administered for 2 days; format: functional, organism-based; settings: time 2.0 day
Mus musculus [40] = test: Neuroprotective activity against Eif 2bS R191H […] mouse model assessed as reduction in asns level in brain at 50 mg/kg, po administered for 2 days; format: functional, organism-based; settings: time 2.0 day
Mus musculus [41] = test: Neuroprotective activity against Eif 2bS R191H […] mouse model assessed as reduction in ppp1r15a level in brain at 50 mg/kg, po administered for 2 days; format: functional, organism-based; settings: time 2.0 day

Voltage-gated inwardly rectifying potassium channel KCNH2, sequence (Q12809 whole entry, the tested form may be a part): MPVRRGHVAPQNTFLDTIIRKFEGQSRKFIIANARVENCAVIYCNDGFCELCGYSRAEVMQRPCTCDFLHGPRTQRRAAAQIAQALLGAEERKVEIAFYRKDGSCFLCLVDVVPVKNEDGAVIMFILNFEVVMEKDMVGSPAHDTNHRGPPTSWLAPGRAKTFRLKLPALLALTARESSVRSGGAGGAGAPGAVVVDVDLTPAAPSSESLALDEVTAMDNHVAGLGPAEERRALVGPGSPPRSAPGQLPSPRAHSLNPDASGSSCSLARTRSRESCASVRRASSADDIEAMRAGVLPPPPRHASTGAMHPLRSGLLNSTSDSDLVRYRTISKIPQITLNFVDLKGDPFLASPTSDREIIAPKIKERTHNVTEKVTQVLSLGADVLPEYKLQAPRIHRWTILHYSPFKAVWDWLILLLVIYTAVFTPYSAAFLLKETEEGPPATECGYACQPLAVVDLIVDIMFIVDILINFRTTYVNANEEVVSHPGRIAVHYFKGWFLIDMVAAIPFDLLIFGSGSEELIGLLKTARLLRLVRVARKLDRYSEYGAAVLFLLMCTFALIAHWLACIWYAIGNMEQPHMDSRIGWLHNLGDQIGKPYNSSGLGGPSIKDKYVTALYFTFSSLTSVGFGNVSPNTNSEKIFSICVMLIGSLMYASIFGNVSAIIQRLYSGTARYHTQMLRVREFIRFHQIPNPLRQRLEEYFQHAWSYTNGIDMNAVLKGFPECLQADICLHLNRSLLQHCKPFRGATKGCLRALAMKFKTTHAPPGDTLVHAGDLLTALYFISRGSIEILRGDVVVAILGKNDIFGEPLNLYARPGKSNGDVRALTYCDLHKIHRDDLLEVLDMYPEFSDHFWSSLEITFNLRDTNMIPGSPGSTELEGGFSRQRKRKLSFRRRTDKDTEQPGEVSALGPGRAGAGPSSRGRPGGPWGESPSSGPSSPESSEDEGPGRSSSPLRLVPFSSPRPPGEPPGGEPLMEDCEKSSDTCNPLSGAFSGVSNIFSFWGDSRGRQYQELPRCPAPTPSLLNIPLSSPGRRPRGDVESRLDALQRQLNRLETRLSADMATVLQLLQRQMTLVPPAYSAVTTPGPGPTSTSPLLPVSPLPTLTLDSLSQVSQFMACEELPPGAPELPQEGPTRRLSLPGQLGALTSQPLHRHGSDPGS

logD [1]: 3.6
CLhep predicted [2]: 13 mL/min/kg
SMILES: O=C(COc1ccc(Cl)c(F)c1)NC12CC(NC(=O)CO[C@H]3C[C@H](C(F)(F)F)C3)(C1)C2

logD [1]: 3.3
solubility kinetic [3]: 5 µM (≈ 2.19 µg/mL)
SMILES: O=C(COc1ccc(Cl)cc1)NC1CCN(C(=O)COc2ccc(Cl)cc2)CC1

logD [1]: 4.5
solubility kinetic [3]: < 1 µM
SMILES: O=C(COc1ccc(Cl)cc1)NC12CCC(NC(=O)COc3ccc(Cl)cc3)(CC1)CC2

logD [1]: 3.4
solubility kinetic [3]: 34 µM (≈ 13.4 µg/mL)
SMILES: O=C(COc1ccc(Cl)cc1)NC12CC(NC(=O)COC3CCCC3)(C1)C2

logD [1]: 1.8
solubility kinetic [3]: 194 µM (≈ 76.6 µg/mL)
SMILES: O=C(COc1ccc(Cl)cc1)NC12CC(NC(=O)COC3CCOC3)(C1)C2 (stereo not drawn)

logD [1]: 2.9
solubility kinetic [3]: 2 µM (≈ 0.871 µg/mL)
SMILES: O=C(COc1ccc(Cl)cc1)NC12CC(NC(=O)COc3ccc(Cl)cc3)(C1)C2

CLhep predicted [2]: < 6 mL/min/kg
SMILES: O=C(COc1ccc(Cl)c(F)c1)NC12CC(c3cnn([C@H]4C[C@@H](OC(F)(F)F)C4)n3)(C1)C2

logD [1]: 3.1
CLhep predicted [2]: 13 mL/min/kg
SMILES: OC(COC1CCC(Cl)C(F)C1)NC12CC(NC(O)CO[C@H]3C[C@@H](C(F)(F)F)C3)(C1)C2 (stereo partly drawn)

CLhep predicted [2]: < 6 mL/min/kg
SMILES: O=C(COc1ccc(F)cc1)NC12CC(c3nnc([C@H]4C[C@@H](OC(F)(F)F)C4)o3)(C1)C2

logD [1]: 3.6
solubility kinetic [3]: 19 µM (≈ 7.46 µg/mL)
SMILES: O=C(COCC1CCC1)NC12CC(NC(=O)COc3ccc(Cl)cc3)(C1)C2

CLhep predicted [2]: < 6 mL/min/kg
CLhep predicted [4]: < 17 mL/min/kg
clearance [5]: 0.4 mL/min/kg
Vd [6]: 0.31 L/kg
half-life [7]: 12.5 h
bioavailability [8]: 65%
bioavailability [9]: > 99%
bioavailability [10]: 56%
CLhep predicted [11]: < 17 mL/min/kg
clearance [12]: 0.4 mL/min/kg
clearance [13]: 4.8 mL/min/kg
clearance [14]: 2.9 mL/min/kg
Vd [15]: 0.31 L/kg
Vd [16]: 2.7 L/kg
Vd [17]: 1.9 L/kg
half-life [18]: 12.5 h
half-life [19]: 7.4 h
half-life [20]: 7.6 h
bioavailability [21]: > 99%
K(p,uu,brain) [22]: 0.8
K(p,uu,brain) [23]: 0.9
Activity [24]: Not Active
Activity [25]: Not Active
Activity [26]: Not Active
IC50 (H4): 12.5 nM
SMILES: O=C(COc1ccc(Cl)cc1)NC12CC(c3nnc([C@H]4C[C@@H](OC(F)(F)F)C4)o3)(C1)C2 [EVETIFATOR]
IC50 [27]: 3000 nM
Activity (Mus musculus [28]): Active
Activity (Mus musculus [29]): Active
Activity (Mus musculus [30]): Active
Activity (Mus musculus [31]): Active
Activity (Mus musculus [32]): Active
Activity (Mus musculus [33]): Active
Activity (Mus musculus [34]): Active
Activity (Mus musculus [35]): Active
Activity (Mus musculus [36]): Active
Activity (Mus musculus [37]): Active
Activity (Mus musculus [38]): Active
Activity (Mus musculus [39]): Active
Activity (Mus musculus [40]): Active
Activity (Mus musculus [41]): Active
